{"source": "paper PMC5344539", "about": "“Nematode neuropeptides as transgenic nematicides” (PLoS Pathogens, 2017)", "key": {"G. pallida J2s [1]": {"tested_on": "G. pallida J2s", "experiment": "Chemosensory (chemotaxis) assay of uNLP pre-treated J2s towards tomato root exudate", "format": "in vivo, Globodera pallida", "procedure": "(§1) Predicted uNLPs from both M. incognita and G. pallida were synthesised by EZBiolab and dissolved into pH adjusted ddH2O to make a 5 mM stock which was aliquoted and stored at -20°C. J2s of both M. incognita and G. pallida were incubated for 24 hours in 200 μl of each peptide in a 24 well plate (SPL Lifesciences, South Korea) at a defined concentration.\n(§2) A 60 mm Petri dish was divided into two segments, a positive and a negative side, with a 0.5 cm 'dead zone' either side of the centre point. The petri dish was filled with 15 ml of 0.25% w/v agar which was allowed to solidify. 3 ml of 0.25% w/v agar slurry in spring water (pH 7, agitated with a magnetic stirrer for several hours to give a smooth consistency) was added to the petri dish and spread evenly over the surface. Root diffusate (attractant) and water only (control) 0.25% agar plugs were embedded in the agar slurry, either side of the assay arena. Root diffusate was collected from 10 tomato plants, aged 3–6 weeks in 1 litre pots, by pouring 500 ml of ddH20 through the soil three times. Diffusate from each plant was combined, filter sterilised and stored at 4°C for a maximum of 1 month. Root diffusate agar plugs were made by melting 1.25% agar in ddH20, cooling to 50°C before mixing with 4 parts of root diffusate. The agar was then allowed to solidify at room temperature. 100 uNLP pre-treated M. incognita or G. pallida J2s were added by pipette to the centre of the plate. J2s which moved out of the 'dead zone' after 3 hours were counted and their location (+/-) scored. The distribution of J2s were used to create a chemotaxis index for each plate, which formed one replicate, a total of 10 replicates where completed for each uNLP treatment."}, "M. incognita J2s [2]": {"tested_on": "M. incognita J2s", "experiment": "Chemosensory (chemotaxis) assay of uNLP pre-treated J2s towards tomato root exudate", "format": "in vivo, Meloidogyne incognita", "procedure": "as §1, §2"}, "G. pallida J2s [3]": {"tested_on": "G. pallida J2s", "experiment": "Plant protection assay, B. subtilis secreting uNLPs", "format": "in vivo, Globodera pallida", "conditions": "Fig 4D; peptide secreted by transgenic B. subtilis culture in tomato invasion arena with 500 J2s; control = 100%; mean", "procedure": "(§3) Tomato seeds were sterilised with 2.5% NaOCl for 15 minutes, washed 5 times in ddH20 and germinated on 0.5% Murashige and Skoog plates at 23°C. […] Invasion assays were performed by mixing 500 pre-treated M. incognita or G. pallida J2s with agar slurry and a single tomato seedling (2 days post germination) in a 6 well plate. Assays were left at 23°C for 24 hours in the case of M. incognita and at 18°C for 24 hours in the case of G. pallida under a 16 hour light and 8 hour darkness cycle. Seedlings were stained using acid fuschin [69] and the number of nematodes within the roots counted. At least five seedlings were used for M. incognita infections assays, with at least 15 seedlings used for G. pallida infections assays (due to increased variation).\n(§4) B. subtilis were grown overnight in LB media containing ampicillin (100 μg/ml) at 37°C with shaking, and harvested in the log phase of growth determined by measuring OD600nm. Five ml of culture at 0.5 OD was spun down and the pellet mixed with 3 ml of agar slurry and 500 J2s from either G. pallida or M. incognita. C. reinhardtii clones were grown at 23°C with shaking, cultures in the log phase were measured at OD750 and 5 ml of culture at 0.5 OD was pelleted by centrifugation. C. reinhardtii pellets were mixed with 3 ml of agar slurry and 500 J2s from either G. pallida or M. incognita. Plant invasion assays were performed as described above. […]"}, "M. incognita J2s [4]": {"tested_on": "M. incognita J2s", "experiment": "Plant protection assay, C. reinhardtii secreting uNLPs", "format": "in vivo, Meloidogyne incognita", "conditions": "Fig 4A; peptide secreted by transgenic C. reinhardtii culture in tomato invasion arena with 500 J2s; relative to untransformed C. reinhardtii = 100%; mean", "procedure": "as §3, §4"}, "[5]": {"conditions": "100 μM uNLP, 24 h, relative to controls"}}, "note": "“Also recorded” adds a separate entry of the source."}
{"sequence": "SFDSFTGPGFTGLD [Mi-NLP-15b, predicted unamidated NLP perfectly conserved between M. incognita and G. pallida; synthesised, also secreted from transgenic microbes]", "values": [{"measurement": "effect on chemosensation (in words)", "setting": "G. pallida J2s [1]; [5]", "value": "inhibits G. pallida chemotaxis"}, {"measurement": "CI score", "setting": "G. pallida J2s [1]; Fig 2A, J2s incubated in 100 μM uNLP for 24 h, tomato cv. Moneymaker root exudate vs water agar plugs, counted after 3 h, mean of 10 replicates of 100 J2s, control 0.4154", "value": -0.04762}, {"measurement": "effect on chemosensation (in words)", "setting": "M. incognita J2s [2]; [5]", "value": "inhibit chemosensation; also recorded: inhibited"}, {"measurement": "CI score", "setting": "M. incognita J2s [2]; Fig 1A, J2s incubated in 100 μM uNLP for 24 h, tomato cv. Moneymaker root exudate vs water agar plugs, counted after 3 h, mean of 10 replicates of 100 J2s, control 0.4426", "value": -0.3408}, {"measurement": "CI score", "setting": "M. incognita J2s [2]; Fig 3A, 100 pM peptide, 24 h, control 0.4133, mean", "value": 0.03117}, {"measurement": "CI score", "setting": "M. incognita J2s [2]; Fig 3A, 1 nM peptide, 24 h, control 0.4133, mean", "value": -0.07105}, {"measurement": "CI score", "setting": "M. incognita J2s [2]; Fig 3A, 10 nM peptide, 24 h, control 0.4133, mean", "value": -0.1741}, {"measurement": "CI score", "setting": "M. incognita J2s [2]; Fig 3A, 100 nM peptide, 24 h, control 0.4133, mean", "value": -0.1195}, {"measurement": "CI score", "setting": "M. incognita J2s [2]; Fig 3A, 1 µM peptide, 24 h, control 0.4133, mean", "value": -0.1344}, {"measurement": "CI score", "setting": "M. incognita J2s [2]; Fig 3A, 10 µM peptide, 24 h, control 0.4133, mean", "value": -0.03579}, {"measurement": "CI score", "setting": "M. incognita J2s [2]; Fig 3A, 100 µM peptide, 24 h, control 0.4133, mean", "value": -0.3782}, {"measurement": "CI score", "setting": "M. incognita J2s [2]; Fig 3A, concentration printed as 22:00:00, 24 h, control 0.4133, mean", "value": -0.1553}, {"measurement": "lowest concentration inhibiting chemosensation", "setting": "M. incognita J2s [2]; serial dilution, 24 h exposure (Fig 3)", "value": "≤ 10", "unit": "pM"}, {"measurement": "% Invasion", "setting": "G. pallida J2s [3]", "value": 51.98, "unit": "%"}, {"measurement": "% Invasion", "setting": "M. incognita J2s [4]", "value": 10.82, "unit": "%"}]}
